# In PMC5908784, “Extracellular loops 2 and 3 of the calcitonin receptor selectively modify agonist binding and efficacy” (Biochemical Pharmacology, 2018):
# Substitutions are numbered along the chain they refer to. Like-named read-outs stand apart in the source and are kept apart here. Where a SMILES comes first, the peptide text is derived from it. Bridges are numbered along the chain shown (N, C = ends).
# How the values were obtained:
# Type in all cases: cell-based
# [1] = molecular target: T1, hCTR S292A (Homo sapiens, UniProt P30988, S292A); test: ERK1/2 phosphorylation; conditions: CV1-FlpIn cells, mean ± S.E.M.; for Emax: pERK maximal response; for EC50: pERK, three-parameter logistic fit
# T1 construct: expressed in transfected cells
# T1 sequence (P30988 25-474 S292A): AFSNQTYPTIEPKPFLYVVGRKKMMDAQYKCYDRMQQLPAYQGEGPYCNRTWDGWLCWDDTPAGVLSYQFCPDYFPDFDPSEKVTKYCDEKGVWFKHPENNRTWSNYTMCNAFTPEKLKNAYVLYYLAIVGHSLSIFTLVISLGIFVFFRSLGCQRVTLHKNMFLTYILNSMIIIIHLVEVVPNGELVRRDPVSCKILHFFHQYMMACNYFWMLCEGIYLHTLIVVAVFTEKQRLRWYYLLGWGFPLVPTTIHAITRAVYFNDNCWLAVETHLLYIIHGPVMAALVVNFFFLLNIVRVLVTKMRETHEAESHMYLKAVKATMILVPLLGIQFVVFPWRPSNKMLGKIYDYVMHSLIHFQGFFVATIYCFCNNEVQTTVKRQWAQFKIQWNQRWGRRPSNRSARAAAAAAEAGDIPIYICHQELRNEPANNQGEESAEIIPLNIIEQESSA
# Method in brief: (§1)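 Overnight-plated cells at 2.5 × 10^4/well are stimulated, and ERK1/2 phosphorylation is referenced to the 10% FBS response at 6 min before logistic curve fitting.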
# [2] = molecular target: T2, hCTR F356A (Homo sapiens, UniProt P30988, F356A); test: IP1 accumulation; conditions: read-out: Emax (% WT), SEM
# T2 construct: c-Myc (N); expressed in transfected cells
# T2 sequence (P30988 25-474 F356A): T1 sequence (P30988 25-474 S292A) with A268S, F332A
# Method in brief: (§2)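 Ligand-induced IP1 (60 min, LiCl) measured by HTRF; normalized to 100 μM ATP response.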
# [3] = molecular target: T3, hCTR Y372A (Homo sapiens, UniProt P30988, Y372A); test: ERK1/2 phosphorylation; conditions: CV1-FlpIn cells, mean ± S.E.M.; for Emax: pERK maximal response
# T3 construct: c-Myc (N); expressed in transfected cells
# T3 sequence (P30988 25-474 Y372A): T1 sequence (P30988 25-474 S292A) with A268S, Y348A
# Method in brief: as §1
# [4] = molecular target: T4, hCTR P363A (Homo sapiens, UniProt P30988, P363A); test: IP1 accumulation; conditions: mean ± S.E.M.; for Emax: IP1 maximal response, SEM
# T4 construct: expressed in transfected cells
# T4 sequence (P30988 25-474 P363A): T1 sequence (P30988 25-474 S292A) with A268S, P339A
# Method in brief: as §2
# [5] = molecular target: T5, hCTR W290A (Homo sapiens, UniProt P30988, W290A); test: ERK1/2 phosphorylation; conditions: CV1-FlpIn cells, mean ± S.E.M.; for Emax: pERK maximal response
# T5 construct: c-Myc (N); expressed in transfected cells
# T5 sequence (P30988 25-474 W290A): T1 sequence (P30988 25-474 S292A) with W266A, A268S
# Method in brief: as §1
# [6] = pERK, three-parameter logistic fit
Compound,Emax [1] [%],Emax [2] [%],Emax [3] [%],EC50 [1] [nM],"Emax ([2]; F356A, IP1 maximal response, mean ± S.E.M.) [%]",Emax [4] [%],Emax [5] [%],"EC50 ([4]; IP1, CV1-FlpIn cells, 60 min, LiCl) [nM]","EC50 [5, 6] [nM]","EC50 [3, 6] [nM]"
CC(C)C[C@H](NC(=O)[C@H](CC(N)=O)NC(=O)[C@H](CC(N)=O)NC(=O)[C@H](CO)NC(=O)[C@H](CO)NC(=O)[C@H](CCCNC(=N)N)NC(=O)[C@@H](NC(=O)[C@H](CC(C)C)NC(=O)[C@H](Cc1ccccc1)NC(=O)[C@H](CC(N)=O)NC(=O)[C@H](C)NC(=O)[C@H](CC(C)C)NC(=O)[C@H](CCCNC(=N)N)NC(=O)[C@H](CCC(N)=O)NC(=O)[C@@H](NC(=O)[C@H](C)NC(=O)[C@@H]1CSSC[C@H](NC(=O)[C@@H](N)CCCCN)C(=O)N[C@@H](CC(N)=O)C(=O)N[C@@H]([C@@H](C)O)C(=O)N[C@@H](C)C(=O)N[C@@H]([C@@H](C)O)C(=O)N1)[C@@H](C)O)C(C)C)C(=O)NCC(=O)N1CCC[C@H]1C(=O)N[C@H](C(=O)N[C@@H](CC(C)C)C(=O)N1CCC[C@H]1C(=O)N1CCC[C@H]1C(=O)N[C@H](C(=O)N[C@@H](CC(N)=O)C(=O)N[C@H](C(=O)NCC(=O)N[C@@H](CO)C(=O)N[C@@H](CC(N)=O)C(=O)N[C@H](C(=O)N[C@@H](Cc1ccc(O)cc1)C(N)=O)[C@@H](C)O)C(C)C)[C@@H](C)O)C(C)C [rAmy],96 ± 12,–,–,–,–,–,–,–,–,–
CC[C@H](C)[C@H](NC(=O)[C@H](C)NC(=O)[C@@H](NC(=O)[C@H](CCC(N)=O)NC(=O)[C@@H]1CCCN1C(=O)[C@H](Cc1ccccc1)NC(=O)[C@@H](NC(=O)[C@H](Cc1c[nH]cn1)NC(=O)[C@H](Cc1ccccc1)NC(=O)[C@H](CCCCN)NC(=O)[C@H](CC(N)=O)NC(=O)[C@H](Cc1ccccc1)NC(=O)[C@H](CC(=O)O)NC(=O)[C@H](CCC(N)=O)NC(=O)[C@@H](NC(=O)[C@H](Cc1ccc(O)cc1)NC(=O)[C@@H](NC(=O)CNC(=O)[C@H](CC(C)C)NC(=O)[C@H](CCSC)NC(=O)[C@@H]1CSSC[C@H](N)C(=O)NCC(=O)N[C@@H](CC(N)=O)C(=O)N[C@@H](CC(C)C)C(=O)N[C@@H](CO)C(=O)N[C@@H]([C@@H](C)O)C(=O)N1)[C@@H](C)O)[C@@H](C)O)[C@@H](C)O)[C@@H](C)O)C(=O)NCC(=O)N[C@H](C(=O)NCC(=O)N[C@@H](C)C(=O)N1CCC[C@H]1C(N)=O)C(C)C [hCT],116 ± 11,69 ± 6,46 ± 4,–,–,–,–,–,–,–
CC(C)C[C@H](NC(=O)CNC(=O)[C@H](C)NC(=O)[C@H](CC(C)C)NC(=O)[C@H](CCCNC(=N)N)NC(=O)[C@H](Cc1cnc[nH]1)NC(=O)[C@@H](NC(=O)[C@@H](NC(=O)[C@@H]1CSSC[C@H](NC(=O)[C@H](C)N)C(=O)N[C@@H](CC(=O)O)C(=O)N[C@@H]([C@@H](C)O)C(=O)N[C@@H](C)C(=O)N[C@@H]([C@@H](C)O)C(=O)N1)C(C)C)[C@@H](C)O)C(=O)N[C@@H](CC(C)C)C(=O)N[C@@H](CO)C(=O)N[C@@H](CCCNC(=N)N)C(=O)N[C@@H](CO)C(=O)NCC(=O)NCC(=O)N[C@H](C(=O)N[C@H](C(=O)N[C@@H](CCCCN)C(=O)N[C@@H](CC(N)=O)C(=O)N[C@@H](CC(N)=O)C(=O)N[C@@H](Cc1ccccc1)C(=O)N[C@H](C(=O)N1CCC[C@H]1C(=O)N[C@H](C(=O)N[C@@H](CC(N)=O)C(=O)N[C@H](C(=O)NCC(=O)N[C@@H](CO)C(=O)N[C@@H](CCCCN)C(=O)N[C@@H](C)C(=O)N[C@@H](Cc1ccccc1)C(N)=O)C(C)C)[C@@H](C)O)C(C)C)C(C)C)C(C)C [hαCGRP],80 ± 12,–,–,20.9,–,–,–,–,–,–
CC(C)C[C@H](NC(=O)[C@H](CCCCN)NC(=O)CNC(=O)[C@H](CC(C)C)NC(=O)[C@@H](NC(=O)[C@@H]1CSSC[C@H](N)C(=O)N[C@@H](CO)C(=O)N[C@@H](CC(N)=O)C(=O)N[C@@H](CC(C)C)C(=O)N[C@@H](CO)C(=O)N[C@@H]([C@@H](C)O)C(=O)N1)C(C)C)C(=O)N[C@@H](CO)C(=O)N[C@@H](CCC(N)=O)C(=O)N[C@@H](CCC(=O)O)C(=O)N[C@@H](CC(C)C)C(=O)N[C@@H](Cc1c[nH]cn1)C(=O)N[C@@H](CCCCN)C(=O)N[C@@H](CC(C)C)C(=O)N[C@@H](CCC(N)=O)C(=O)N[C@H](C(=O)N[C@@H](Cc1ccc(O)cc1)C(=O)N1CCC[C@H]1C(=O)N[C@@H](CCCNC(=N)N)C(=O)N[C@H](C(=O)N[C@@H](CC(N)=O)C(=O)N[C@H](C(=O)NCC(=O)N[C@@H](CO)C(=O)NCC(=O)N[C@H](C(=O)N1CCC[C@H]1C(N)=O)[C@@H](C)O)[C@@H](C)O)[C@@H](C)O)[C@@H](C)O [sCT],121 ± 7,–,39 ± 3,–,36 ± 3,86 ± 9,38 ± 4,–,–,–
CSCC[C@H](NC(=O)CNC(=O)[C@H](CO)NC(=O)[C@H](Cc1ccccc1)NC(=O)[C@H](CCCNC(=N)N)NC(=O)[C@H](Cc1c[nH]cn1)NC(=O)[C@H](Cc1ccccc1)NC(=O)[C@H](CC(N)=O)NC(=O)[C@H](CC(N)=O)NC(=O)[C@H](CC(C)C)NC(=O)[C@H](CC(N)=O)NC(=O)[C@H](CCCNC(=N)N)NC(=O)[C@H](Cc1c[nH]c2ccccc12)NC(=O)[C@H](Cc1ccc(O)cc1)NC(=O)[C@H](C)NC(=O)[C@H](CO)NC(=O)[C@H](CC(C)C)NC(=O)[C@@H](NC(=O)[C@@H]1CSSC[C@H](N)C(=O)N[C@@H](CO)C(=O)N[C@@H](CC(N)=O)C(=O)N[C@@H](CC(C)C)C(=O)N[C@@H](CO)C(=O)N[C@@H]([C@@H](C)O)C(=O)N1)C(C)C)C(=O)NCC(=O)N[C@@H](Cc1ccccc1)C(=O)NCC(=O)N1CCC[C@H]1C(=O)N[C@@H](CCC(=O)O)C(=O)N[C@H](C(=O)N1CCC[C@H]1C(N)=O)[C@@H](C)O [pCT] (H-CSNLSTCVLSAYWRNLNNFHRFSGMGFGPETP-NH2; disulfide 1-7),104 ± 7,–,26 ± 4,0.55,–,73 ± 10,28 ± 3,6.17,7.41,19.1
